Where a name gives a salt, the structure may show the parent alone.
Key:
[1] = Disappearance in vitro in dog liver homogenate; format: in vitro ADME; details: 50 μg test compound, 33% (w/v) liver homogenate, 37° C., read-out: T1/2 Dog Liver Homogenate
Experimental: (§1) The rate of disappearance of a compound is expressed as the half-life (T1/2), which is the time period in which one half of the initial amount of compound tested disappears. […] The samples were incubated in a Dubnoff shaking metabolic incubator for 2.5, 5.0, 10.0, 20.0, 30.0 and 60.0 minutes at 37° C. At the designated time periods, the test mixtures were removed from the incubator and transferred to a 0° C. ice bath. Acetonitrile (2 ml) was immediately added and the mixtures were mixed to stop enzymatic hydrolysis. Zero time samples were prepared by adding 2 ml. of acetonitrile to denature the proteins prior to addition of the test compounds. After centrifugation to sediment denatured proteins, 2 ml. of the supernatant was removed and analyzed by high pressure liquid chromatography, using a mobile phase of 60% acetonitrile/40% 0.05 m sodium phosphate buffer (pH 6.6), a U.V. detector and Waters® μ Bondapak Phenyl column. The half life of each test compound was determined graphically by plotting the decrease in concentration as a function of time.

[2] = target: T1, β-adrenergic receptors (guinea pig tracheal strips) (Cavia porcellus, UniProt Q8K4Z4); test: β-blocking activity in vitro, guinea pig tracheal strips (tension response to isoproterenol); format: cell-based; details: vs isoproterenol, 60 minute incubation, 37° C.; for Kb: read-out: pA2 Trachea (converted)
T1 construct: from tissue; host or cells: guinea pig trachea (isolated spiral strips)
Experimental: (§2) Each tissue was suspended between a fixed glass rod and a Statham® Universal Transducer connected to a Beckman® recorder. Atria were allowed to beat spontaneously under a loading tension of approximately 0.5 gm. Instrinsic depressant or stimulant activity was determined for each compound by progressively increasing concentrations in the tissue baths at 60-minute intervals. Tissues were not washed between increments. The maximum concentration showing little or no cardiodepressant activity was chosen for blockade experiments. Changes in rate in response to isoproterenol were measured in the absence and presence of test compounds. Spiral strips of guinea pig trachea were suspended under 5 gm resting tension and incubated with phentolamine, tropolone and cocaine. Active tension was generated by addition of carbachol (3.0×10^-7 M) and decreases in tension in response to isoproterenol were quantitated. Cumulative concentration-response curves were produced with isoproterenol both before and after 60 minute incubation of test compounds with atria and trachea. The blocking potency of test compounds was estimated by computing pA2 values (-log […]) by the method of Furchgott, The Pharmacological Differentiation of Adrenergic Receptors, Ann. […] The degree of cardioselectivity was estimated from the ratio, KB trachea/KB atria (10^(pA.sbsp.2^atria-pA.sbsp.2^trachea)). A ratio greater than one indicates cardioselectivity. Test drugs were dissolved in distilled water and added to the bath (30 ml) in a volume of 10 or 100 μl.

[3] = target: T2, β-adrenergic receptors (guinea pig right atria) (Cavia porcellus, UniProt H0W3H1); test: β-blocking activity in vitro, guinea pig right atria (rate response to isoproterenol); format: cell-based; details: vs isoproterenol, guinea pig right atria, 60 minute incubation, 37° C.; for Kb: read-out: pA2 Atria (converted)
T2 construct: Atria were allowed to beat spontaneously under a loading tension; from tissue; host or cells: guinea pig right atria (isolated, spontaneously beating)
Experimental: as §2

[4] = Disappearance in vitro in dog whole blood; format: in vitro ADME; details: 50 μg test compound, 37° C., read-out: T1/2 Dog Whole Blood
Experimental: as §1

[5] = system: heart rate response to isoproterenol; test: Duration of beta-blockade in vivo, anesthetized dogs, 3-hour infusion; details: dog; for 80% Recovery Time: after termination of 3-hour infusion; for % I (Percent inhibition of heart rate response to isoproterenol): end of 3-hour infusion, bolus isoproterenol 0.5 μg/kg
Experimental: (§3) The duration of beta-blockade was determined in vivo using pentobarbitalanesthetized dogs instrumented for measurement of heart rate using a Beckman® cardiotachometer triggered electronically by a phasic aortic blood pressure signal. Both vagus nerves were severed in the cervical region and the animals were mechanically ventilated. Two experimental designs were used. The first employed a 40-minute infusion of test compound and the second used a 3-hour infusion of test compound. In the 40-minute model, isoproterenol was infused into a foreleg vein at the rate of 0.5 μg/kg/min to induce a beta-receptor mediated tachycardia. Various doses of test compound where then infused into a femoral vein over a period of 40 minutes. This infusion was then terminated and recovery from blockade was quantitated. […] This cumulative dose is expressed as mg/kg and is an indication of potency. The time period required for 80% recovery of heart rate for each dose of test drug was also measured to quantitate duration of action. […] Test compounds were dissolved in 0.9% NaCl and infused at a rate of 0.05 ml/kg/min or less. In the 3-hour infusion model, bolus doses of isoproterenol (0.5 μg/kg) were used to assess the degree of beta-blockade and recovery from beta-blockade after termination of the infusion. The doses were spaced at 10-minute intervals and were given before, during and following the infusion of test compounds. The infusion rate was adjusted so that at the end of the 3-hour infusion period the degree of isoproterenol inhibition averaged about 50% of control.

[6] = Disappearance in vitro in human whole blood; format: in vitro ADME; details: 50 μg test compound, 37° C., read-out: T1/2 Human Whole Blood
Experimental: as §1

[7] = system: heart rate response to isoproterenol; test: Duration of beta-blockade in vivo, anesthetized dogs, 40-minute infusion; design: species or system dog; details: for Recovery Times 50%: 50% recovery of heart rate after 40-minute infusion; for Recovery Times 50% / Recovery Times 80% / Recovery Times 100%: normalized to 50% inhibition, dog; for Recovery Times 80%: 80% recovery of heart rate after 40-minute infusion; for Recovery Times 100%: 100% recovery of heart rate after 40-minute infusion; for ED50: Canis lupus familiaris, iv, 40 min, read-out: Potency
Experimental: as §3

[8] = system: β-adrenergic receptors (guinea pig right atria); test: β-blocking activity in vitro, guinea pig right atria (rate response to isoproterenol); format: cell-based; details: ratio from pA2 atria and trachea; greater than one indicates cardioselectivity
Experimental: as §2

T1 sequence (Q8K4Z4 whole entry): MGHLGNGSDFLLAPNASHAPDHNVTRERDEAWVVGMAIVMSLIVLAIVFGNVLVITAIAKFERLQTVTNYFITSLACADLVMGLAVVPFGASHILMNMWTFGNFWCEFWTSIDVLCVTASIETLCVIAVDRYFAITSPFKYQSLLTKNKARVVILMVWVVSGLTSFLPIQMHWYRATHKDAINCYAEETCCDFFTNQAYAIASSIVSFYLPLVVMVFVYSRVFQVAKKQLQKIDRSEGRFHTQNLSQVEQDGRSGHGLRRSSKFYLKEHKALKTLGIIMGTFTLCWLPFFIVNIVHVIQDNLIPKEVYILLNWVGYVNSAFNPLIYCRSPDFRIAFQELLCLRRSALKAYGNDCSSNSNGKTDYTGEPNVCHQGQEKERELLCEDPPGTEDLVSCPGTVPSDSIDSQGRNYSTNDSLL
T2 sequence (H0W3H1 1-470): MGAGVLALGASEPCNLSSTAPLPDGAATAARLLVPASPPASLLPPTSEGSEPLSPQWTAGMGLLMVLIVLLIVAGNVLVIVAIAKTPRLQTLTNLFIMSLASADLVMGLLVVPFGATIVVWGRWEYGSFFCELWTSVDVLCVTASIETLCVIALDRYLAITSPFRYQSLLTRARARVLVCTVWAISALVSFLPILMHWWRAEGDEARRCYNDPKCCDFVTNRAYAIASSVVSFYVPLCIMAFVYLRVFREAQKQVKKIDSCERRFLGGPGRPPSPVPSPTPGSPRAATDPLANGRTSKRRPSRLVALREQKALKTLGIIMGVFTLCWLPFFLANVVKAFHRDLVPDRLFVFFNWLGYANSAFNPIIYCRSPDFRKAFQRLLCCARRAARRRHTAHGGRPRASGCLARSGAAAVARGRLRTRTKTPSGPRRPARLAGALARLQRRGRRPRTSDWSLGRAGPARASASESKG

| half-life [1] | Kb [2] | Kb [3] | half-life [4] | half-life [6] | pA2 Trachea [2] | pA2 Atria [3] | Structure (SMILES) | 80% Recovery Time [5] | % I (Percent inhibition of heart rate response to isoproterenol) [5] | Recovery Times 50% [7] | Recovery Times 80% [7] | Recovery Times 100% [7] | ED50 [7] | Cardioselectivity KB (Trachea)/KB (Atria) [8] |
| --- | --- | --- | --- | --- | --- | --- | --- | --- | --- | --- | --- | --- | --- | --- |
| 12 ± 4 min |  |  | 28 ± 15 min | 1.7 ± 0.6 min |  |  | CC(C)NCC(O)COC(=O)c1ccccc1Cl (stereo not drawn) [Example XII, [3-(Isopropylamino)-2-hydroxy]propyl 2-chlorobenzoate hydrochloride] |  |  | 19 min | 30 min | 51 min | 1.75 mg/kg |  |
| 8 ± 3.5 min |  |  | 6.8 ± 2 min | 2.3 ± 0.6 min | 7.2 | 6.3 | CC(C)NCC(O)COC(=O)c1ccccc1 (stereo not drawn) [Example VI, [3-(Isopropylamino)-2-hydroxy]propyl Benzoate Hydrochloride] | 26 ± 8 min | 63 ± 8% | 7 ± 2 min | 14 ± 3 min | 21 ± 3 min | 3.4 ± 1.1 mg/kg |  |
| 147 ± 69 min |  |  | > 180 min | > 180 min |  |  | Cc1ccccc1C(=O)OCC(O)CNC(C)C (stereo not drawn) [XVII] | > 60 min | 83% |  |  |  |  |  |
| 10 ± 4 min | 158 nM | 158 nM | 67 ± 24 min | 6 min |  |  | Cc1ccc(C(=O)OCC(O)CNC(C)C)cc1 (stereo not drawn) [Example X] |  |  | 11.0 min | 20 ± 2 min | 30.0 min | 3.1 ± 0.3 mg/kg | 1 |
| 17 ± 7 min | 10 nM | 158 nM | 6 ± 2 min | 1.4 ± 1 min |  |  | CC(C)(C)NCC(O)COC(=O)c1ccccc1F (stereo not drawn) [XXXIX] | 17 ± 3 min | 60 ± 2% |  |  |  |  |  |

| Structure (SMILES) | half-life [1] | Kb [2] | Kb [3] | half-life [4] | half-life [6] | pA2 Trachea [2] | pA2 Atria [3] | 80% Recovery Time [5] | % I (Percent inhibition of heart rate response to isoproterenol) [5] | Recovery Times 50% [7] | Recovery Times 80% [7] | Recovery Times 100% [7] | ED50 [7] | Cardioselectivity KB (Trachea)/KB (Atria) [8] |
| --- | --- | --- | --- | --- | --- | --- | --- | --- | --- | --- | --- | --- | --- | --- |
| COc1ccc(C(=O)OCC(O)CNC(C)C)cc1 (stereo not drawn) [XXIII] | 37 ± 20 min | 501 nM | 1000 nM | 150 ± 30 min | 55 ± 5 min |  |  | > 60 min | 67 ± 6% |  |  |  |  |  |
| CC(C)(C)NCC(O)COC(=O)c1ccccc1Cl (stereo not drawn) [XXXVIII] | 68 ± 4 min |  |  | 30 ± 2 min | 6 ± 2 min |  |  |  | 67% |  |  |  |  |  |

From US4405642A, “Method for treatment or prophylaxis of cardiac disorders” (American Hospital Supply Corporation, priority 1980, dated 1983)
